Entries after “also recorded” stand apart in the source; their conditions may differ.
Tested on: sunflower NCE gene expression
Assay: Northern blot analysis of NCE gene transcript levels under different chemical treatments
Type: in vivo
Details: six-week-old SMF3 sunflower plants sprayed with 5 mM oxalic acid, 5 mM H2O2, 5 mM salicylic acid or 45 μM jasmonic acid (0.1% ethanol); leaf samples at 0, 6, 12, 24 hours
Procedure: FIG. 4 depicts the results of a Northern blot analysis of NCE gene transcript levels under different chemical treatments. Six-week-old sunflower plants were sprayed with oxalic acid (OA) (5 mM), H2O2 (5 mM), salicylic acid (SA) (5 mM), and jasmonic acid (JA) (45 μM in 0.1% ethanol). The leaf samples were collected at 0, 6, 12, and 24 hours after the applications and immediately frozen in liquid nitrogen. Twenty μg of total RNA was loaded in each sample lane. (CK, control)
For fungal infection and chemical treatments, SMF3 sunflower plants were planted in four-inch pots and grown in greenhouse for the first four weeks. After transfer to the growth chamber, the plants were maintained under 12-hour photoperiod at 22° C. with an 80% relative humidity. Six-week old plants were inoculated with Sclerotinid-infected carrot plugs or sprayed with an aqueous solution of either 5 mM oxalic acid, 5 mM H2O2, 5 mM salicylic acid or 45 μM jasmonic acid (with 0.1% ethanol). For each plant, three petioles were inoculated and wrapped with a 1 inch×2 inch piece of parafilm. Plant tissue samples were harvested at different time points and immediately frozen in liquid nitrogen and then stored at −80° C.
Plant materials were ground in liquid nitrogen, and total RNA was extracted by the Tri-Reagent method. RNA profiling was conducted using CuraGen Corporation's proprietary method sold under the trademark GENECALLING. See U.S. Pat. No. 5,871,697, herein incorporated by reference. Profiles of RNA samples prepared from combined leaf and stem tissues of six-week-old oxox sunflower plants were compared to profiles of similar RNA samples from of six-week-old SMF3 plants.
Total RNA (20 μg) was separated in a 1% agarose gel containing formaldehyde. Ethidium bromide was included to verify equal loading of RNA. After transfer onto Hybond N+membrane, the blots were hybridized with ^32P-labeled NCE, AAP, or GRP cDNA probes. As a control, a duplicate blot was hybridized with a probe complementary to 18S rRNA. Hybridization and washing conditions were performed according to Church et al. ((1984) Proc. Natl. Acad. Sci. USA 81:1991-1995).

Row | SMILES | NCE gene expression (transcript level, Northern blot)
1 | CC/C=C\C[C@H]1C(=O)CC[C@@H]1CC(=O)O [jasmonic acid] | negatively regulated; also recorded: down-regulated
2 | OO [H2O2] | negatively regulated; also recorded: down-regulated
3 | O=C(O)C(=O)O [oxalic acid] | negatively regulated
4 | O=C(O)c1ccccc1O [salicylic acid] | negatively regulated; also recorded: down-regulated

From US6630615B1, “Defense-related signaling genes and methods of use” (Pioneer Hi-Bred International, Inc., priority 1999, dated 2003)
